Literature values as cited in US20050182026A1, “Use of phospholipids in peritoneal dialysis” (priority 2002, published 2005).

Assays:
[1] = test system: respiratory distress syndrome; details: various physical forms, used for two decades in newborns

For `CCCCCCCCCCCCCCCC(=O)OC[C@H](COP(=O)([O-])OCC[N+](C)(C)C)OC(=O)CCCCCCCCCCCCCCC` [DPPC, dipalmitoylphosphatidylcholine], the solubility in water is listed as “highly insoluble in water”, the critical micelle concentration (in water) is listed as 5×10^−10 Molar and the “safety in clinical use” value [1] is listed as “complete safety”.
